Assays:
Format in all cases: in vivo
tomatoes = test: Foliar application to tomato, yield; conditions: for change in fruit weight per plant vs no spray control: Roma, Bt.4Q7Flg22 16.7 μM at 4.0 Fl. oz/Ac, Gm.RHPP 100 μM at 3.2 Fl. oz/Ac
Method: Small scale plots were designed to simulate commercial growing conditions for tomatoes. Two hybrids of tomatoes, JetSetter (Trial 1) and Better Big Boy (Trial 2) were started as transplants in the greenhouse 42 to 56 days prior to planting in the raised field beds. Tomatoes were transplanted once soil temperatures three inches (7.6 cm) beneath the soil surface reach 60° F. (15.5° C.). Tomatoes were grown on raised beds covered with black plastic mulch. Plants were grown using drip irrigation and fertilizer applied following grower guidelines throughout the growing season to ensure optimum plant growth and yields. Small raised bed plots were designed to simulate the planting densities used by commercial growers that generally plant 2,600 to 5,800 plants per acre in single rows with 18 to 30 inches (46 to 76 cm) between plants in the row on 5- to 6.5-ft (1.5 to 2 m) centers.
Foliar treatments of Bt.4Q7 Flg22 and Ec. […] Replicated trials were conducted at the University of Missouri (Columbia, Mo.) in July. Control plants were treated with equal volumes (use rates) of water. Effects of the foliar treatments on increasing yield in tomatoes were determined and reported as normalized to the water control treatment.
In another experiment, tomato plants (hybrid: Better Boy), cultivated as described in the previous example, were treated with a formulation of Bt.4Q7 Flg22 at the first bloom stage. The formulation used consisted of the retro inverso D RI Bt.4Q7 Flg22 applied with 0.01% (v/v) non-ionic surfactant. […] At harvest, the yield was measured as the number of fruits per plant, the weight (grams) per fruit and the total yield (lbs/Ac). Table 29 reports the yield as a percent comparison or change to the non-treated control (water only) plants.
Foliar application treatments of Gm.RHPP (SEQ ID NO: 600) was applied as an exogenous spray at the pre-bloom stage and used to increase yield in tomatoes. Two tomato hybrids (JetSetter and Better Big Boy) were planted in small scale plots as described in Example 12. […] Replicated trials were conducted at the US Midwest (Missouri) in July. The foliar treatment of Gm.RHPP on tomato plants was compared to the control (water applied at same use rate). Effects of the foliar treatments on increasing yield in tomatoes were determined and reported as normalized to the water control treatment and reported as the average percentage change in yield over the average control yield in Table 41.
Small scale plots were designed to simulate commercial growing conditions for tomatoes. Tomato plants, variety Roma were started from transplants that were grown in a greenhouse for 45 days prior to planting into 2 raised field row beds with 2 feet (0.6 meters) between each transplant with an average of 30 plants per row bed. […] Tomatoes were grown on raised beds covered with black plastic mulch. Plants were grown using drip irrigation and fertilizer (80 lbs. or 36.3 kg) nitrogen; 100 lbs. (45.4 kg) phosphate, and 100 lbs. (45.4 kg) potash or potassium) applied following grower guidelines throughout the growing season to provide for optimum plant growth and yields. Small raised bed plots were designed to simulate the planting densities used by commercial growers that generally plant 2,600 to 5,800 plants per acre in single rows with 45.7 to 76.2 cm between plants in the row on 1.5- to 2-meter centers. [Orzolek et al., “Agricultural Alternatives: Tomato Production.” University Park: Penn State Extension, 2016].
Foliar treatments using Bt.4Q7Flg22 and Gm.RHPP were applied on the tomato plants directly at early bloom (first flower) stage.

Phakopsora pachyrhizi = test: Asian soybean rust severity and defoliation, field trials in Paraguay; conditions: for defoliation: Yatytay site; for less Asian soybean rust leaf area damage than untreated control: two foliar applications from R1, 150 and 300 mL/Ha
soybean [1] = test: Soybean yield in trials infected with Phakopsora pachyrhizi and Cercospora kikuchii, Paraguay; conditions: for yield increase vs untreated control: FOX Fungicide where combined
Excerpt: Beginning at the R1 stage of development, soybean plants received two foliar applications of the compositions described in Table 90 with an interval of 13-14 days between spray applications. Foliar treatments were applied to a single soy variety (which one? Same at all 3 sites) at the three sites, with 4 replicated plots (3×10 meters, 30 m2; with minimum of 6 rows per treatment). Disease assessments for trials that were naturally infected were scored for the severity of infection (0-100% of foliage affected) were scored for 10 plants within each plot for both Asian soybean rust caused by Phakopsora pachyrhizi and Cercospora leaf blight of soybean caused by Cercospora kikuchii at the R4-R5 stage of soy development (4-15 days after second foliar application) with guidance from Godoy et al (1997; Journal of plant diseases and protection 104:336-345). Percent phytotoxicity (0-100% of foliage affected) was also scored at the R4-R5 stage of soy development. Severity of infection and phytotoxicity were averaged across all four replicates per site (Total=12 replicates, 3 sites with 4 replicates each). Standard deviation for each treatment between the three sites was calculated.

soybean [2] = test: Foliar application to soybean, field yield trials; conditions: foliar at R2, AG2836, 7 US Midwest locations
soybean [3] = test: Foliar application to soybean, field yield trials; conditions: for average yield change vs non-treated control: Flg22 polypeptides 0.33 Fl. oz/Ac, RHPP 4 Fl. oz/Ac
[4] = 1 Fl. oz/Ac, first bloom, hybrid Better Boy, formulation with 0.01% non-ionic surfactant
[5] = 1 Fl. oz/Ac, foliar at early bloom
[6] = 20 Fl. oz/Ac, foliar at early bloom
[7] = foliar at R2, 7 US Midwest locations, use rate 0.33 Fl. oz/Ac
[8] = foliar at R2, 7 US Midwest locations, use rate 4.0 Fl. oz/Ac
[9] = foliar at R2, 7 US Midwest locations, use rate 8.0 Fl. oz/Ac
[10] = foliar at R2, AG3536, 7 US Midwest locations, use rate 0.33 Fl. oz/Ac
[11] = foliar 1 Fl. oz/Ac at early bloom, vs water control
[12] = foliar at R2, average of AG3536 and AG3832, use rate RHPP 4.0, N-RAGE MAX 128 Fl. oz/Ac

## Bt.4Q7Flg22: Flg22 polypeptide (22 amino acids) from flagellin of Bacillus thuringiensis strain 4Q7 (DRLSSGKRINSASDDAAGLAIA; listed as Bacillus thuringiensis)
tomatoes; [4]
  Percent Change in Number of Fruits per Plant Compared to Control: +12%
  Percent Change in Weight/Fruit Compared to Control: +9%
  Percent Change in Yield (lbs/Ac) Compared to Control: +21%
tomatoes; [5]
  Average Trials 1 & 2 Percent Change Yield over Avg. Control: +25%
  Trial 1: Percent Change in Yield over Avg. Control; Hybrid: Jetsetter: +49%
  Trial 2: Percent Change in Yield over Avg. Control; Hybrid: Better Big Boy: +1%
tomatoes; [6]
  Average Trials 1 & 2 Percent Change Yield over Avg. Control: +17%
  Trial 1: Percent Change in Yield over Avg. Control; Hybrid: Jetsetter: +22%
  Trial 2: Percent Change in Yield over Avg. Control; Hybrid: Better Big Boy: +12%
tomatoes
  change in fruit weight per plant vs no spray control: 8.61%
tomatoes; early bloom, high rate 20 Fl. oz/Ac
  increase in tomato yield over control, two hybrids averaged: 17%
tomatoes; early bloom, low rate 1 Fl. oz/Ac
  increase in tomato yield over control, two hybrids averaged: 25%
Phakopsora pachyrhizi; R7, 150 mL/Ha
  defoliation: 70%
Phakopsora pachyrhizi; R7, 300 mL/Ha
  defoliation: 60%
Phakopsora pachyrhizi
  less Asian soybean rust leaf area damage than untreated control: 12.4-13.0%
Soybean [1]; Bt.4Q7Flg22 300 mL/Ha, FOX Fungicide at label rate
  increase in yield (relative): 36.1%
Soybean [1]; polypeptide 150 mL/Ha
  yield increase vs untreated control: 342.2 kg/Ha
Soybean [1]; polypeptide 300 mL/Ha
  yield increase vs untreated control: 427.2 kg/Ha
Soybean [2]; use rate 0.33 Fl. oz/Ac
  Average Total Yield Bu/Ac Variety 1: 60.33 Bu/Ac
Soybean [2]; use rate 4.0 Fl. oz/Ac
  Average Total Yield Bu/Ac Variety 1: 57.61 Bu/Ac
Soybean [2]; use rate 8.0 Fl. oz/Ac
  Average Total Yield Bu/Ac Variety 1: 59.05 Bu/Ac
Soybean [3]; R2 foliar 0.33 Fl. oz/Ac, 11 locations
  win rate: 64%
Soybean [3]; R2 foliar, 8 Fl. oz/Ac, 11 sites
  yield advantage: 0.88 Bu/Ac
Soybean [3]; R2 foliar, 11 locations
  average yield change vs non-treated control: −0.1 Bu/Ac
Soybean [3]; [7]
  Average Bu/Ac Increase compared to Control Variety 1 and 2: +0.45 Bu/Ac
  Average Total Yield Bu/Ac Variety 1 and 2: 61.02 Bu/Ac
Soybean [3]; [8]
  Average Bu/Ac Increase compared to Control Variety 1 and 2: +0.33 Bu/Ac
  Average Total Yield Bu/Ac Variety 1 and 2: 60.90 Bu/Ac
Soybean [3]; [9]
  Average Bu/Ac Increase compared to Control Variety 1 and 2: +0.88 Bu/Ac
  Average Total Yield Bu/Ac Variety 1 and 2: 61.45 Bu/Ac
Soybean [3]; [10]
  Average Total Yield Bu/Ac Variety 2: 61.61 Bu/Ac
Soybean [3]; foliar at R2, AG3536, 7 US Midwest locations, use rate 4.0 Fl. oz/Ac
  Average Total Yield Bu/Ac Variety 2: 64.19 Bu/Ac
Soybean [3]; foliar at R2, AG3536, 7 US Midwest locations, use rate 8.0 Fl. oz/Ac
  Average Total Yield Bu/Ac Variety 2: 63.86 Bu/Ac

## GGIRAAPTGNER (Glycine max) [RHPP, Root Hair Promoting Peptide from Glycine max]
tomatoes; 1 Fl. oz/Ac, Better Big Boy
  increase in tomato yield over control: 10%
tomatoes; 1 Fl. oz/Ac, Jetsetter hybrid
  increase in tomato yield over control: 93%
tomatoes; 1 Fl. oz/Ac, early bloom
  average increase in tomato yield over control, two hybrids: 52%
tomatoes; Roma tomato, foliar at early bloom, Bt.4Q7Flg22 16.7 μM 4.0 Fl. oz/Ac, Gm.RHPP 100 μM 3.2 Fl. oz/Ac
  Percentage Change in Fruit Weight Compared to No-Spray Control: +1.99%
tomatoes; Roma tomato, foliar at early bloom, Bt.4Q7Flg22 16.7 μM 4.0 Fl. oz/Ac, Gm.RHPP 100 μM 3.2 Fl. oz/Ac, 2 harvests
  Average Fruit Weight (grams) per Plant: 1397.1 grams
tomatoes
  change in fruit weight per plant vs no spray control: ~2%
tomatoes; foliar 1 Fl. oz/Ac at early bloom, both tomato hybrids
  Average Trials 1 & 2 Percent Change Yield over Avg. Control: +52%
tomatoes; [11]
  Trial 1: Percent Change in Yield over Avg. Control; Hybrid: Jetsetter: +93%
  Trial 2: Percent Change in Yield over Avg. Control; Hybrid: Better Big Boy: +10%
Phakopsora pachyrhizi; R7, 150 mL/Ha
  defoliation: 96%
Phakopsora pachyrhizi; R7, 300 mL/Ha
  defoliation: 70%
Phakopsora pachyrhizi
  less Asian soybean rust leaf area damage than untreated control: 10.5-11.3%
Soybean [1]; polypeptide 150 mL/Ha
  yield increase vs untreated control: 294.2 kg/Ha
Soybean [1]; polypeptide 300 mL/Ha
  yield increase vs untreated control: 506.8 kg/Ha
Soybean [2]; use rate 0.33 Fl. oz/Ac
  Average Total Yield Bu/Ac Variety 1: 59.15 Bu/Ac
Soybean [3]; 8 fl oz/Ac with foliar fertilizer, 11 sites
  yield advantage on top of foliar fertilizer: 1 Bu/AC
Soybean [3]; R2 foliar, 2 varieties, 7 locations, RHPP alone 4.0 Fl. oz/Ac
  yield increase over non-treated control: 1.26 Bu/Ac
Soybean [3]; R2 foliar, 4 Fl. oz/Ac, 11 sites
  yield advantage: 0.31 Bu/Ac
Soybean [3]; R2 foliar, 11 locations
  average yield change vs non-treated control: 1.2 Bu/Ac
Soybean [3]; RHPP 1 Fl. oz/Ac (300 nM) with N-RAGE MAX, R2, variety AG3536, 5 locations
  yield increase compared to fertilizer alone: 1.4 Bu/Ac
Soybean [3]; [7]
  Average Bu/Ac Increase compared to Control Variety 1 and 2: +0.35 Bu/Ac
  Average Total Yield Bu/Ac Variety 1 and 2: 60.92 Bu/Ac
Soybean [3]; [10]
  Average Total Yield Bu/Ac Variety 2: 62.44 Bu/Ac
Soybean [3]; [12]
  Average Bu/Ac Change compared to Control Variety 1 and 2: +0.9 Bu/Ac
  Average Total Yield Bu/Ac Variety 1 and 2: 63.23 Bu/Ac
Soybean [3]; foliar at R2, variety 1 (AG3536), 5 US Midwest locations, use rate RHPP 4.0, N-RAGE MAX 128 Fl. oz/Ac
  Average Total Yield Bu/Ac Variety 1: 65.42 Bu/Ac
Soybean [3]; foliar at R2, variety 2 (AG3832), 5 US Midwest locations, use rate RHPP 4.0, N-RAGE MAX 128 Fl. oz/Ac
  Average Total Yield Bu/Ac Variety 2: 61.04 Bu/Ac

Source: patent US12268727B2, “Bioactive polypeptides for improvements in plant protection, growth and productivity” (priority 2017, dated 2025)
